Measurements taken from patent publication US20230019491A1, “PYRIMIDINE TBK/IKKe INHIBITOR COMPOUNDS AND USES THEREOF” (Merck Patent GmbH, priority 2017, published 2023).
Structures can show the parent of a compound that is named as a salt.

Legend:
IKKε = target: T1, IKKε (Homo sapiens, UniProt Q14164); test: IKKε biochemical assay; details: 10 point 1:4 dose response, 30 uM top concentration, 90 min at 25° C., LabChip EZ Reader II; read-out: IKKε_IC50
T1 sequence (Q14164 1-716): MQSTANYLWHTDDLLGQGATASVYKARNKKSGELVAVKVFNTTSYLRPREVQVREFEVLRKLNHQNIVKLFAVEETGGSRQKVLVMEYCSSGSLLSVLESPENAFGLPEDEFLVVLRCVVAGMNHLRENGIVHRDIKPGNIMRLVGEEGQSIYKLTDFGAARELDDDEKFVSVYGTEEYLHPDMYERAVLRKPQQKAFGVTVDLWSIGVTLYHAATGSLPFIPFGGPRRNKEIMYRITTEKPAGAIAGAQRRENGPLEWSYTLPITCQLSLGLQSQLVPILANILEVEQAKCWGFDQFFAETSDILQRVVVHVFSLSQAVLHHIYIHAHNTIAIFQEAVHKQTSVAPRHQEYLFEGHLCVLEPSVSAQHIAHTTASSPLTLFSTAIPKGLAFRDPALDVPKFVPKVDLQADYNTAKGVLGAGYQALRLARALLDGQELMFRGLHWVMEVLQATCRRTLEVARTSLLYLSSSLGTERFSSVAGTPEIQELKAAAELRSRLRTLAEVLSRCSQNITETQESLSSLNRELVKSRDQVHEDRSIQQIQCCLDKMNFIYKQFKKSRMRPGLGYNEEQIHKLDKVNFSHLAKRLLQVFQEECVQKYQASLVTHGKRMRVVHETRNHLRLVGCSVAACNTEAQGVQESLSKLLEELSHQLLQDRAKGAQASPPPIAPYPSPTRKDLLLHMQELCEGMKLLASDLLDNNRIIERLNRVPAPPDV
Protocol: (§1) Test compounds were transferred into Labcyte polypropylene 384 well plates (P055-25) and diluted to 3 mM using DMSO. […] 100 uM of a reference compound (1 uM final high concentration). Backfilling was performed if necessary so that all wells contain 1% DMSO final:
(§2) add 75 nl DMSO/well into columns 1, 2 and 24 using Labcyte Echo. add 75 nl 1.0 mM staurosporine/well into column 23 using Labcyte Echo (10 uM final) add 4.5 ul enzyme/well using multidrop dispenser add 3 ul substrate/well using multidrop dispenser incubate at 25° C. for 90 min. add 7.5 ul 2× stop buffer read on labchip ez reader II using IKKε.
(§3) Raw data files were opened in the Caliper LabChip Reviewer program (Version 3.0.265.0 SP2) and peak assignments were adjusted to reflect “substrate first” with the software's post-run analysis options. A spline-fit baseline was applied using the software's analysis algorithm.

TBK1 = target: T2, TBK1 (Homo sapiens, UniProt Q9UHD2); test: TBK biochemical assay; details: 10 point 1:4 dose response, 30 uM top concentration, 90 min at 25° C., LabChip EZ Reader II; read-out: TBK1_IC50
T2 sequence (Q9UHD2 1-729): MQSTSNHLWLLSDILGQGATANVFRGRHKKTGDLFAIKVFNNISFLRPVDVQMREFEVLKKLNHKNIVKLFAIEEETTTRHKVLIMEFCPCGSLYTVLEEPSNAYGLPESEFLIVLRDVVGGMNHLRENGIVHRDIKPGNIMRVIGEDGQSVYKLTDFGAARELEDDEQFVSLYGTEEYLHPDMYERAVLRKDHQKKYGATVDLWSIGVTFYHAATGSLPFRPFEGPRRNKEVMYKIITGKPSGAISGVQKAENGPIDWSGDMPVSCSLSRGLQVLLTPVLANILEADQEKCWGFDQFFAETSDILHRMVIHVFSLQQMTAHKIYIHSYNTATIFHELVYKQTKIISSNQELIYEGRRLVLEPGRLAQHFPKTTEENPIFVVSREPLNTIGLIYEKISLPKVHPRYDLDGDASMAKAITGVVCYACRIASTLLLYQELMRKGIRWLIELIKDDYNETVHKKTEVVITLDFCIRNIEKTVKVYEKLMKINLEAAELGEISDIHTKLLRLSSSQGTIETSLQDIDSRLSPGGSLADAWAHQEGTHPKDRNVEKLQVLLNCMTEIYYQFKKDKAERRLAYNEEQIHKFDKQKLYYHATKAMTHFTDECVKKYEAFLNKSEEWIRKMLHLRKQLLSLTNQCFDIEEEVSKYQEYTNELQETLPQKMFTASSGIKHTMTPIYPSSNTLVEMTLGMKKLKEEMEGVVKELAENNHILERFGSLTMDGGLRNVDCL
Protocol: as §1
as §2, with “C. in Heidolph incubator” for “C.”, “buffer using multidrop dispenser” for “buffer”, “TBK1.job” for “IKKε.”
as §3

IC50 (IKKε)	IC50 (TBK1)	Compound
< 100 nM	100 to 1000 nM	CN1CCN(c2ccc(Nc3nccc(-c4ccc(O[C@H]5CCN(C)C[C@H]5F)c(C#N)c4)n3)nc2)CC1 [Example 84, 2-[[(3R,4S)-3-fluoro-1-methylpiperidin-4-yl]oxy]-5-(2-[[5-(4-methylpiperazin-1-yl)pyridin-2-yl]amino]pyrimidin-4-yl)benzonitrile]
< 100 nM	< 100 nM	COc1nc(Nc2nccc(-c3ccc(OC4CCN(C)CC4(F)F)c(C#N)c3)n2)ccc1N1CCN(C)CC1 (stereo not drawn) [Example 98, 2-[(3,3-difluoro-1-methylpiperidin-4-yl)oxy]-5-(2-[[6-methoxy-5-(4-methylpiperazin-1-yl)pyridin-2-yl]amino]pyrimidin-4-yl)benzonitrile]
100 to 1000 nM	< 100 nM	COc1nc(Nc2ncc(C)c(-c3ccc(OC4CCN(C(=O)[C@@H](C)O)CC4(F)F)c(C#N)c3)n2)ccc1N1CCN(C2COC2)CC1 (stereo partly drawn) [Example 286, 2-([33-difluoro-1-[(2R)-2-hydroxypropanoyl]piperidin-4-yl]oxy)-5-[2-([6-methoxy-5-[4-(oxetan-3-yl)piperazin-1-yl]pyridin-2-yl]amino)-5-methylpyrimidin-4-yl]benzonitrile]
< 100 nM	< 100 nM	COc1nc(Nc2nccc(-c3ccc(OC4CCN(C(=O)[C@@H](C)O)CC4(F)F)c(C#N)c3)n2)ccc1N1CCN(C)[C@H](C)C1 (stereo partly drawn) [Example 103, 2-[3,3-Difluoro-1-((R)-2-hydroxy-propionyl)-piperidin-4-yloxy]-5-{2-[5-((R)-3,4-dimethyl-piperazin-1-yl)-6-methoxy-pyridin-2-ylamino]-pyrimidin-4-yl}-benzonitrile]
< 100 nM	< 100 nM	COc1nc(Nc2nccc(-c3ccc(OC4(C)CCN(C(=O)[C@@H](O)CO)CC4(F)F)c(C#N)c3)n2)ccc1N1CCN(C2COC2)CC1 (stereo partly drawn) [Example 264, 2-[1-((S)-2,3-Dihydroxy-propionyl)-3,3-difluoro-4-methyl-piperidin-4-yloxy]-5-{2-[6-methoxy-5-(4-oxetan-3-yl-piperazin-1-yl)-pyridin-2-ylamino]-pyrimidin-4-yl}-benzonitrile]
< 100 nM	< 100 nM	COc1nc(Nc2nccc(-c3ccc(O[C@H]4CCN(C(=O)[C@H](C)O)C[C@H]4F)c(C#N)c3)n2)ccc1N1CCN(C)CC1 [Example 201, 2-[[(3R,4S)-3-fluoro-1-[(2S)-2-hydroxypropanoyl]piperidin-4-yl]oxy]-5-(2-[[6-methoxy-5-(4-methylpiperazin-1-yl)pyridin-2-yl]amino]pyrimidin-4-yl)benzonitrile]
< 100 nM	< 100 nM	COc1cc(N2CCN(C3COC3)CC2)ccc1Nc1nccc(-c2ccc(OC3CCN(C(=O)[C@H](C)O)CC3(F)F)c(C#N)c2)n1 (stereo partly drawn) [Example 228, 2-([33-difluoro-1-[(2S)-2-hydroxypropanoyl]piperidin-4-yl]oxy)-5-[2-([2-methoxy-4-[4-(oxetan-3-yl)piperazin-1-yl]phenyl]amino)pyrimidin-4-yl]benzonitrile]
< 100 nM	< 100 nM	COc1nc(Nc2ncc(C)c(-c3ccc(O[C@H]4CCN(C(=O)[C@H](C)O)CC4(F)F)c(C#N)c3)n2)ccc1N1CCN(C2COC2)CC1 [Example 284, 2-[[(4S)-3,3-difluoro-1-[(2S)-2-hydroxypropanoyl]piperidin-4-yl]oxy]-5-[2-([6-methoxy-5-[4-(oxetan-3-yl)piperazin-1-yl]pyridin-2-yl]amino)-5-methylpyrimidin-4-yl]benzonitrile]
< 100 nM	< 100 nM	COc1nc(Nc2nccc(-c3ccc(OC4CCOCC4)c(C#N)n3)n2)ccc1C(=O)N1CCCCC1 [Example 30, 6-[2-([6-methoxy-5-[(piperidin-1-yl)carbonyl]pyridin-2-yl]amino)pyrimidin-4-yl]-3-(oxan-4-yloxy)pyridine-2-carbonitrile]
< 100 nM	< 100 nM	COc1cc(Nc2nccc(-c3ccc(OC4CCN(C(=O)[C@H](C)O)CC4(F)F)c(C#N)c3)n2)ccc1C1CCN(C2COC2)CC1 (stereo partly drawn) [Example 311, 2-([3,3-difluoro-1-[(2S)-2-hydroxypropanoyl]piperidin-4-yl]oxy)-5-[2-([3-methoxy-4-[1-(oxetan-3-yl)piperidin-4-yl]phenyl]amino)pyrimidin-4-yl]benzonitrile]
100 to 1000 nM	100 to 1000 nM	COc1cc(Nc2nccc(-c3ccc(OC4CCOCC4)c(C#N)c3)n2)ncc1N1CCN(C)CC1 [Example 53, 5-(2-[[4-methoxy-5-(4-methylpiperazin-1-yl)pyridin-2-yl]amino]pyrimidin-4-yl)-2-(oxan-4-yloxy)benzonitrile hydrochloride]
< 100 nM	< 100 nM	COc1nc(Nc2nccc(-c3ccc(O[C@H]4CCN(C(=O)[C@@H](C)O)C[C@@H]4F)c(C#N)c3)n2)ccc1C1CCN(C2COC2)CC1 [Example 188, 2-[(3S,4S)-3-Fluoro-1-((R)-2-hydroxy-propionyl)-piperidin-4-yloxy]-5-[2-(2-methoxy-1′-oxetan-3-yl-1′,2′,3′,4′,5′,6′-hexahydro-[3,4′]bipyridinyl-6-ylamino)-pyrimidin-4-yl]-benzonitrile]
< 100 nM	< 100 nM	COc1nc(Nc2nccc(-c3ccc(O[C@H]4CCNC[C@H]4F)c(C#N)c3)n2)ccc1N1CCN(C)CC1 [Example 95]
< 100 nM	< 100 nM	C[C@@H](O)C(=O)N1CCC(Oc2ccc(-c3ccnc(Nc4ccc(N5CCN(C6COC6)CC5)cc4)n3)cc2C#N)C1 (stereo partly drawn) [Example 179, 2-([1-[(2R)-2-hydroxypropanoyl]pyrrolidin-3-yl]oxy)-5-[2-([4-[4-(oxetan-3-yl)piperazin-1-yl]phenyl]amino)pyrimidin-4-yl]benzonitrile]
< 100 nM	< 100 nM	C[C@H](O)C(=O)N1CCC(Oc2ccc(-c3ccnc(Nc4ccc(C5CCN(C6COC6)CC5)cc4)n3)cc2C#N)C(F)(F)C1 (stereo partly drawn) [Example 212, 2-([3,3-difluoro-1-[(2S)-2-hydroxypropanoyl]piperidin-4-yl]oxy)-5-[2-([4-[1-(oxetan-3-yl)piperidin-4-yl]phenyl]amino)pyrimidin-4-yl]benzonitrile]
< 100 nM	< 100 nM	COc1cccc(Nc2nccc(-c3ccc(OC4CCN(C(=O)C(C)O)CC4(F)F)c(C#N)c3)n2)n1 (stereo in doubt) [Example 328, 2-([3,3-difluoro-1-[(2S)-2-hydroxypropanoyl]piperidin-4-yl]oxy)-5-[2-[(6-methoxypyridin-2-yl)amino]pyrimidin-4-yl]benzonitrile]
–	< 100 nM	COc1nc(Nc2nccc(-c3ccc(O[C@H]4CCN(C(=O)[C@H](C)O)CC4(F)F)c(C#N)c3)n2)ccc1N1CCN(C2COC2)CC1 [Example 121, 2-[[(4S)-3,3-difluoro-1-[(2S)-2-hydroxypropanoyl]piperidin-4-yl]oxy]-5-[2-([6-methoxy-5-[4-(oxetan-3-yl)piperazin-1-yl]pyridin-2-yl]amino)pyrimidin-4-yl]benzonitrile]
